Source: the NIST ThermoML archive (doi:10.1021/je034076x)

Key:
[1] = excess molar enthalpy (molar enthalpy of mixing); xn = mol fraction of the nth substance listed; settings: 101.3 kPa, Liquid, Flow calorimetry
[2] = xn = mol fraction of the nth substance listed; settings: 101.3 kPa, Liquid; for viscosity: Capillary tube (Ostwald / Ubbelohde) method; for speed of sound: Pulse-echo method; for mass density: Vibrating tube method

OCC(F)(F)F [2,2,2-trifluoroethanol] + C1CCOC1
Settings	excess molar enthalpy [kJ/mol]	mass density [kg/m3]	speed of sound [m/s]	viscosity [mPa·s]
[1], 283.15 K, x2 = 0.053	-0.383	–	–	–
[1], 283.15 K, x2 = 0.107	-0.723	–	–	–
[1], 283.15 K, x2 = 0.212	-1.24	–	–	–
[1], 283.15 K, x2 = 0.316	-1.59	–	–	–
[1], 283.15 K, x2 = 0.417	-1.74	–	–	–
[1], 283.15 K, x2 = 0.517	-1.73	–	–	–
[1], 283.15 K, x2 = 0.618	-1.57	–	–	–
[1], 283.15 K, x2 = 0.717	-1.27	–	–	–
[1], 283.15 K, x2 = 0.81	-0.904	–	–	–
[1], 283.15 K, x2 = 0.908	-0.448	–	–	–
[1], 283.15 K, x2 = 0.954	-0.213	–	–	–
[1], 298.15 K, x2 = 0.053	-0.472	–	–	–
[1], 298.15 K, x2 = 0.107	-0.939	–	–	–
[1], 298.15 K, x2 = 0.212	-1.54	–	–	–
[1], 298.15 K, x2 = 0.316	-1.88	–	–	–
[1], 298.15 K, x2 = 0.417	-2	–	–	–
[1], 298.15 K, x2 = 0.517	-1.96	–	–	–
[1], 298.15 K, x2 = 0.618	-1.75	–	–	–
[1], 298.15 K, x2 = 0.717	-1.43	–	–	–
[1], 298.15 K, x2 = 0.81	-0.993	–	–	–
[1], 298.15 K, x2 = 0.908	-0.489	–	–	–
[1], 298.15 K, x2 = 0.954	-0.234	–	–	–
[1], 313.15 K, x2 = 0.053	-0.474	–	–	–
[1], 313.15 K, x2 = 0.107	-0.928	–	–	–
[1], 313.15 K, x2 = 0.212	-1.57	–	–	–
[1], 313.15 K, x2 = 0.316	-1.98	–	–	–
[1], 313.15 K, x2 = 0.417	-2.14	–	–	–
[1], 313.15 K, x2 = 0.517	-2.09	–	–	–
[1], 313.15 K, x2 = 0.618	-1.87	–	–	–
[1], 313.15 K, x2 = 0.717	-1.51	–	–	–
[1], 313.15 K, x2 = 0.81	-1.06	–	–	–
[1], 313.15 K, x2 = 0.908	-0.525	–	–	–
[1], 313.15 K, x2 = 0.954	-0.257	–	–	–
[2], 283.15 K, x2 = 0.1022	–	–	–	2.107
[2], 283.15 K, x2 = 0.1087	–	1336.89	897.7	–
[2], 283.15 K, x2 = 0.2018	–	–	–	1.578
[2], 283.15 K, x2 = 0.2084	–	1277.4	932.6	–
[2], 283.15 K, x2 = 0.299	–	1226.31	966.8	–
[2], 283.15 K, x2 = 0.3033	–	–	–	1.246
[2], 283.15 K, x2 = 0.4037	–	–	–	1.037
[2], 283.15 K, x2 = 0.4038	–	1171.02	1010.1	–
[2], 283.15 K, x2 = 0.4953	–	1125.37	1052.1	–
[2], 283.15 K, x2 = 0.5014	–	–	–	0.8927
[2], 283.15 K, x2 = 0.5967	–	1076.79	–	–
[2], 283.15 K, x2 = 0.6013	–	–	1104.4	–
[2], 283.15 K, x2 = 0.6036	–	–	–	0.7821
[2], 283.15 K, x2 = 0.7004	–	–	–	0.7023
[2], 283.15 K, x2 = 0.7048	–	1027.26	1161.1	–
[2], 283.15 K, x2 = 0.7958	–	–	1213.8	–
[2], 283.15 K, x2 = 0.8048	–	982.37	–	–
[2], 283.15 K, x2 = 0.8532	–	–	–	0.6208
[2], 283.15 K, x2 = 0.8868	–	946.79	–	–
[2], 283.15 K, x2 = 0.9033	–	–	–	0.5846
[2], 283.15 K, x2 = 0.9058	–	–	1283.2	–
[2], 283.15 K, x2 = 0.9657	–	913.1	1324.1	–
[2], 298.15 K, x2 = 0.0362	–	1358.26	–	–
[2], 298.15 K, x2 = 0.1022	–	–	–	1.467
[2], 298.15 K, x2 = 0.1041	–	1315.13	–	–
[2], 298.15 K, x2 = 0.1106	–	–	854.6	–
[2], 298.15 K, x2 = 0.2018	–	–	–	1.169
[2], 298.15 K, x2 = 0.2053	–	1255.19	–	–
[2], 298.15 K, x2 = 0.2095	–	–	885	–
[2], 298.15 K, x2 = 0.3019	–	–	917.9	–
[2], 298.15 K, x2 = 0.3031	–	1201.4	–	–
[2], 298.15 K, x2 = 0.3033	–	–	–	0.9632
[2], 298.15 K, x2 = 0.4018	–	1150.15	–	–
[2], 298.15 K, x2 = 0.4037	–	–	–	0.8286
[2], 298.15 K, x2 = 0.4065	–	–	959.4	–
[2], 298.15 K, x2 = 0.4986	–	1103.07	–	–
[2], 298.15 K, x2 = 0.5014	–	–	–	0.7228
[2], 298.15 K, x2 = 0.5076	–	–	1003.3	–
[2], 298.15 K, x2 = 0.5989	–	1055.77	–	–
[2], 298.15 K, x2 = 0.6036	–	–	–	0.6432
[2], 298.15 K, x2 = 0.6172	–	–	1055.8	–
[2], 298.15 K, x2 = 0.7004	–	–	–	0.5841
[2], 298.15 K, x2 = 0.7019	–	1009.19	–	–
[2], 298.15 K, x2 = 0.7123	–	–	1104.9	–
[2], 298.15 K, x2 = 0.7978	–	967.32	–	–
[2], 298.15 K, x2 = 0.8205	–	–	1164.5	–
[2], 298.15 K, x2 = 0.8532	–	–	–	0.5222
[2], 298.15 K, x2 = 0.899	–	924.33	–	–
[2], 298.15 K, x2 = 0.9033	–	–	–	0.4959
[2], 298.15 K, x2 = 0.9042	–	–	1216.3	–
[2], 313.15 K, x2 = 0.1022	–	–	–	1.057
[2], 313.15 K, x2 = 0.1024	–	1291.64	808.3	–
[2], 313.15 K, x2 = 0.1991	–	1234.96	834.3	–
[2], 313.15 K, x2 = 0.2018	–	–	–	0.8873
[2], 313.15 K, x2 = 0.3032	–	1178.51	868.4	–
[2], 313.15 K, x2 = 0.3033	–	–	–	0.7583
[2], 313.15 K, x2 = 0.3554	–	1151.61	886.4	–
[2], 313.15 K, x2 = 0.4037	–	–	–	0.6648
[2], 313.15 K, x2 = 0.4972	–	1082.56	942.6	–
[2], 313.15 K, x2 = 0.5014	–	–	–	0.5936
[2], 313.15 K, x2 = 0.596	–	1037.96	985.9	–
[2], 313.15 K, x2 = 0.6036	–	–	–	0.5356
[2], 313.15 K, x2 = 0.7004	–	–	–	0.4916
[2], 313.15 K, x2 = 0.7191	–	983.05	1045.5	–
[2], 313.15 K, x2 = 0.7922	–	952.13	1082.8	–
[2], 313.15 K, x2 = 0.8532	–	–	–	0.4431
[2], 313.15 K, x2 = 0.8937	–	909.37	1138.7	–
[2], 313.15 K, x2 = 0.9033	–	–	–	0.4239
